# Assays:
# Assay type in all cases: cell-based
# [1] = test system: Acinetobacter baumannii 9010; experiment: First screening, agar dilution MIC
# Description: (§1) Clinical bacterial isolates from human samples collected in Lille (France) and some collection strains were used. The first screening step on pathogenic bacteria was carried out with crude hydro-alcoholic extracts of different hop parts (Table 1). The second screening was performed using sub-extracts of cones on Gram-positive bacteria, including methicillin-sensitive Staphylococcus aureus (MSSA) and methicillin-resistant Staphylococcus aureus […] (Table 2). These tests were carried out on Petri dishes, Mueller-Hinton Agar (MHA) (Oxoid, UK) was mixed with the plant extract solution in MeOH at 5% (solvent control: 5% MeOH). Final extract concentrations in Petri dishes ranged from 1250 to 4.9 µg/mL. A multi-headed inoculator allowed spotting bacterial strains at 10^5 CFU/mL in cysteinated Ringer (CR) solution (Merck®, France). Minimal Inhibitory Concentrations (MICs) were visually determined after 24 h of incubation at 37 °C.
# [2] = test system: Acinetobacter baumannii 9011; experiment: First screening, agar dilution MIC
# Description: as §1
# [3] = test system: Citrobacter freundii 11041; experiment: First screening, agar dilution MIC
# Description: as §1
# [4] = test system: Citrobacter freundii 11042; experiment: First screening, agar dilution MIC
# Description: as §1
# Corynebacterium T25-17 [5] = experiment: First screening, agar dilution MIC
# Description: as §1
# [6] = test system: Enterobacter cloacae 11050; experiment: First screening, agar dilution MIC
# Description: as §1
# [7] = test system: Enterobacter cloacae 11051; experiment: First screening, agar dilution MIC
# Description: as §1
# [8] = test system: Enterobacter cloacae 11053; experiment: First screening, agar dilution MIC
# Description: as §1
# [9] = test system: Enterococcus faecalis C159-6; experiment: First screening, agar dilution MIC
# Description: as §1
# Enterococcus sp. 8153 = experiment: First screening, agar dilution MIC
# Description: as §1
# Escherichia coli 8138 = experiment: First screening, agar dilution MIC
# Description: as §1
# Escherichia coli 8157 = experiment: First screening, agar dilution MIC
# Description: as §1
# [10] = test system: Escherichia coli ATCC 25922; experiment: First screening, agar dilution MIC
# Description: as §1
# [11] = test system: Klebsiella pneumoniae 11016; experiment: First screening, agar dilution MIC
# Description: as §1
# [12] = test system: Klebsiella pneumoniae 11017; experiment: First screening, agar dilution MIC
# Description: as §1
# [13] = test system: Mycobacterium smegmatis 5003; experiment: First screening, agar dilution MIC
# Description: as §1
# Proteus mirabilis 11060 = experiment: First screening, agar dilution MIC
# Description: as §1
# [14] = test system: Providencia stuartii 11038; experiment: First screening, agar dilution MIC
# Description: as §1
# [15] = test system: Pseudomonas aeruginosa 8131; experiment: First screening, agar dilution MIC
# Description: as §1
# [16] = test system: Pseudomonas aeruginosa ATCC 27583; experiment: First screening, agar dilution MIC
# Description: as §1
# Salmonella sp. 11033 = experiment: First screening, agar dilution MIC
# Description: as §1
# [17] = test system: Serratia marcescens 11056; experiment: First screening, agar dilution MIC
# Description: as §1
# [18] = test system: Serratia marcescens 11057; experiment: First screening, agar dilution MIC
# Description: as §1
# [19] = test system: Staphylococcus aureus 8146; experiment: First screening, agar dilution MIC
# Description: as §1
# [20] = test system: Staphylococcus aureus 8147; experiment: First screening, agar dilution MIC
# Description: as §1
# [21] = test system: Staphylococcus epidermidis 10282; experiment: First screening, agar dilution MIC
# Description: as §1
# [22] = test system: Staphylococcus epidermidis 5001; experiment: First screening, agar dilution MIC
# Description: as §1
# [23] = test system: Staphylococcus lugdunensis T26A3; experiment: First screening, agar dilution MIC
# Description: as §1
# [24] = test system: Staphylococcus warneri T12A12; experiment: First screening, agar dilution MIC
# Description: as §1
# [25] = test system: Stenotrophomonas maltophilia; experiment: First screening, agar dilution MIC
# Description: as §1
# [26] = test system: Streptococcus agalactiae T25-7; experiment: First screening, agar dilution MIC
# Description: as §1
# [27] = test system: Streptococcus agalactiae T53C2; experiment: First screening, agar dilution MIC
# Description: as §1
# [28] = test system: Streptococcus dysgalactiae T46C14; experiment: First screening, agar dilution MIC
# Description: as §1
# Corynebacterium T25-17 [29] = experiment: Second screening, agar dilution MIC; details: Table 2
# Description: as §1
# [30] = test system: Enterococcus faecalis T26-B7; experiment: Second screening, agar dilution MIC
# Description: as §1
# [31] = test system: Enterococcus faecalis T34-2; experiment: Second screening, agar dilution MIC
# Description: as §1
# [32] = test system: Enterococcus faecalis T37A4; experiment: Second screening, agar dilution MIC
# Description: as §1
# [33] = test system: Enterococcus faecalis T39-C11; experiment: Second screening, agar dilution MIC
# Description: as §1
# [34] = test system: Staphylococcus aureus 8147; experiment: Second screening, agar dilution MIC; details: Table 2
# Description: as §1
# [35] = test system: Staphylococcus aureus CIP 224; experiment: Second screening, agar dilution MIC
# Description: as §1
# [36] = test system: Staphylococcus aureus T1.1; experiment: Second screening, agar dilution MIC
# Description: as §1
# [37] = test system: Staphylococcus aureus T25.10; experiment: Second screening, agar dilution MIC
# Description: as §1
# [38] = test system: Staphylococcus aureus T25.3; experiment: Second screening, agar dilution MIC
# Description: as §1
# [39] = test system: Staphylococcus aureus T25.9; experiment: Second screening, agar dilution MIC
# Description: as §1
# [40] = test system: Staphylococcus aureus T26A4; experiment: Second screening, agar dilution MIC
# Description: as §1
# [41] = test system: Staphylococcus aureus T28.1; experiment: Second screening, agar dilution MIC
# Description: as §1
# [42] = test system: Staphylococcus aureus T36B1; experiment: Second screening, agar dilution MIC
# Description: as §1
# [43] = test system: Staphylococcus aureus T47A12; experiment: Second screening, agar dilution MIC
# Description: as §1
# [44] = test system: Staphylococcus aureus T6.7; experiment: Second screening, agar dilution MIC
# Description: as §1
# [45] = test system: Staphylococcus epidermidis 5001; experiment: Second screening, agar dilution MIC; details: Table 2
# Description: as §1
# [46] = test system: Staphylococcus lugdunensis T26A3; experiment: Second screening, agar dilution MIC; details: Table 2
# Description: as §1
# [47] = test system: Staphylococcus pettenkoferi T3.3; experiment: Second screening, agar dilution MIC
# Description: as §1
# [48] = test system: Staphylococcus saprophyticus 08237; experiment: Second screening, agar dilution MIC
# Description: as §1
# [49] = test system: Streptococcus agalactiae 13225; experiment: Second screening, agar dilution MIC
# Description: as §1
# [50] = test system: Streptococcus agalactiae 13226; experiment: Second screening, agar dilution MIC
# Description: as §1
# [51] = test system: Streptococcus agalactiae T25.7; experiment: Second screening, agar dilution MIC
# Description: as §1
# [52] = test system: Streptococcus agalactiae T38.2; experiment: Second screening, agar dilution MIC
# Description: as §1
# [53] = test system: Streptococcus agalactiae T40A2; experiment: Second screening, agar dilution MIC
# Description: as §1
smiles,measurement,setting,value
"CC1(C)S[C@@H]2[C@H](NC(=O)[C@H](N)c3ccc(O)cc3)C(=O)N2[C@H]1C(=O)O [AMX, Amoxicillin]",Susceptibility to AMX,[1],R (R > 16)
same,Susceptibility to AMX,[2],R (R > 16)
same,Susceptibility to AMX,[3],S (Amoxicillin (AMX) S ≤ 4)
same,Susceptibility to AMX,[4],R (R > 16)
same,Susceptibility to AMX,Corynebacterium T25-17 [5],S (Amoxicillin (AMX) S ≤ 4)
same,Susceptibility to AMX,[6],R (R > 16)
same,Susceptibility to AMX,[7],R (R > 16)
same,Susceptibility to AMX,[8],R (R > 16)
same,Susceptibility to AMX,[9],R (R > 16)
same,Susceptibility to AMX,Enterococcus sp. 8153,S (Amoxicillin (AMX) S ≤ 4)
same,Susceptibility to AMX,Escherichia coli 8138,R (R > 16)
same,Susceptibility to AMX,Escherichia coli 8157,R (R > 16)
same,Susceptibility to AMX,[10],I
same,Susceptibility to AMX,[11],R (R > 16)
same,Susceptibility to AMX,[12],R (R > 16)
same,Susceptibility to AMX,[13],S (Amoxicillin (AMX) S ≤ 4)
same,Susceptibility to AMX,Proteus mirabilis 11060,R (R > 16)
same,Susceptibility to AMX,[14],S (Amoxicillin (AMX) S ≤ 4)
same,Susceptibility to AMX,[15],R (R > 16)
same,Susceptibility to AMX,[16],R (R > 16)
same,Susceptibility to AMX,Salmonella sp. 11033,R (R > 16)
same,Susceptibility to AMX,[17],R (R > 16)
same,Susceptibility to AMX,[18],R (R > 16)
same,Susceptibility to AMX,[19],I
same,Susceptibility to AMX,[20],S (Amoxicillin (AMX) S ≤ 4)
same,Susceptibility to AMX,[21],S (Amoxicillin (AMX) S ≤ 4)
same,Susceptibility to AMX,[22],S (Amoxicillin (AMX) S ≤ 4)
same,Susceptibility to AMX,[23],S (Amoxicillin (AMX) S ≤ 4)
same,Susceptibility to AMX,[24],S (Amoxicillin (AMX) S ≤ 4)
same,Susceptibility to AMX,[25],R (R > 16)
same,Susceptibility to AMX,[26],S (Amoxicillin (AMX) S ≤ 4)
same,Susceptibility to AMX,[27],S (Amoxicillin (AMX) S ≤ 4)
same,Susceptibility to AMX,[28],S (Amoxicillin (AMX) S ≤ 4)
same,Susceptibility to AMX,Corynebacterium T25-17 [29],S (Amoxicillin (AMX) S ≤ 4)
same,Susceptibility to AMX,[30],S (Amoxicillin (AMX) S ≤ 4)
same,Susceptibility to AMX,[31],S (Amoxicillin (AMX) S ≤ 4)
same,Susceptibility to AMX,[32],S (Amoxicillin (AMX) S ≤ 4)
same,Susceptibility to AMX,[33],S (Amoxicillin (AMX) S ≤ 4)
same,Susceptibility to AMX,[34],S (Amoxicillin (AMX) S ≤ 4)
same,Susceptibility to AMX,[35],S (Amoxicillin (AMX) S ≤ 4)
same,Susceptibility to AMX,[36],S (Amoxicillin (AMX) S ≤ 4)
same,Susceptibility to AMX,[37],R (R > 16)
same,Susceptibility to AMX,[38],R (R > 16)
same,Susceptibility to AMX,[39],R (R > 16)
same,Susceptibility to AMX,[40],S (Amoxicillin (AMX) S ≤ 4)
same,Susceptibility to AMX,[41],R (R > 16)
same,Susceptibility to AMX,[42],R (R > 16)
same,Susceptibility to AMX,[43],R (R > 16)
same,Susceptibility to AMX,[44],R (R > 16)
same,Susceptibility to AMX,[45],S (Amoxicillin (AMX) S ≤ 4)
same,Susceptibility to AMX,[46],S (Amoxicillin (AMX) S ≤ 4)
same,Susceptibility to AMX,[47],S (Amoxicillin (AMX) S ≤ 4)
same,Susceptibility to AMX,[48],S (Amoxicillin (AMX) S ≤ 4)
same,Susceptibility to AMX,[49],S (Amoxicillin (AMX) S ≤ 4)
same,Susceptibility to AMX,[50],S (Amoxicillin (AMX) S ≤ 4)
same,Susceptibility to AMX,[51],S (Amoxicillin (AMX) S ≤ 4)
same,Susceptibility to AMX,[52],S (Amoxicillin (AMX) S ≤ 4)
same,Susceptibility to AMX,[53],S (Amoxicillin (AMX) S ≤ 4)

# — PMC6472001, “Phenolic Compounds from Humulus lupulus as Natural Antimicrobial Products: New Weapons in the Fight against Methicillin Resistant Staphylococcus aureus, Leishmania mexicana and Trypanosoma brucei Strains” (Molecules, 2019)
